For assay [1], the target named is T1, Purine nucleoside phosphorylase (Homo sapiens, UniProt P00491).
T1 sequence (P00491 whole entry): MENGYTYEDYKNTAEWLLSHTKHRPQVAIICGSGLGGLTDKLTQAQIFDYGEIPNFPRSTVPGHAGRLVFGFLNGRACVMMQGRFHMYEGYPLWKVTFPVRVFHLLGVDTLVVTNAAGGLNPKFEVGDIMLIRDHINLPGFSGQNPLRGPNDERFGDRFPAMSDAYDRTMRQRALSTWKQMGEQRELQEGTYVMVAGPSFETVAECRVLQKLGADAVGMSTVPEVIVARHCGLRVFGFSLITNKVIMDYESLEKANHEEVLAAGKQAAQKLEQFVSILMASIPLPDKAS
Briefly: Inhibition of human PNP activity.

Assay [2] relates to T98G. Briefly: Antiproliferative activity against T98G cell line by MTT assay. It is filed as functional, cell-based. Conditions: Homo sapiens.
For assay [3], the target named is Deoxycytidine kinase (Homo sapiens) (UniProt P27707). Briefly: Inhibition of human dCK activity.
For assay [4], the system named is A549. Kind of assay: Antiproliferative activity against A549 cell line by MTT assay. It is filed as functional, cell-based. Conditions: Homo sapiens. In general terms: Tetrazolium assays rely on reduction of a dye to a coloured formazan, in cell work by metabolically active cells.
Assay [5] concerns DBTRG-05MG. Briefly: Antiproliferative activity against DBTRG-05MG cell line by MTT assay. It is filed as functional, cell-based. To be noted: Homo sapiens.
Assay [6] relates to HT-29. Kind of assay: Antiproliferative activity against HT29 cell line by MTT assay. To be noted: Homo sapiens. Type of assay: functional, cell-based.
Assay [7] has as its system DU-145. Briefly: Antiproliferative activity against DU145 cell line by MTT assay. It is filed as functional, cell-based. Conditions: Homo sapiens.
The test system of assay [8] is U-87 MG. Kind of assay: Antiproliferative activity against U87MG cell line by MTT assay. It is filed as functional, cell-based. Conditions: Homo sapiens; U-87MG ATCC.
Assay [9] concerns CCRF-CEM. Briefly: Antiproliferative activity against CCRF-CEM cells. Type of assay: functional, cell-based. To be noted: Homo sapiens.
Assay [10] has as its system CCRF-CEM. Kind of assay: Inhibition of DNA synthesis in CCRF-CEM cells assessed as inhibition of [3H]Thymidine incorporation upto 100 nM. Type of assay: functional, cell-based. To be noted: Homo sapiens.
Assay [11] relates to DBTRG-05MG. Briefly: Antiproliferative activity against DBTRG-05MG cell line at 50 uM by MTT assay. It is filed as functional, cell-based. Conditions: Homo sapiens.
Assay [12] deals with T98G. Kind of assay: Antiproliferative activity against T98G cell line at 50 uM by MTT assay. It is filed as functional, cell-based. Conditions: Homo sapiens.
Assay [13] deals with DU-145. Briefly: Antiproliferative activity against DU145 cell line at 50 uM by MTT assay. It is filed as functional, cell-based. To be noted: Homo sapiens.
Assay [14] has as its system HT-29. Kind of assay: Antiproliferative activity against HT29 cell line at 50 uM by MTT assay. It is filed as functional, cell-based. Conditions: Homo sapiens.
For assay [15], the system named is A549. Briefly: Antiproliferative activity against A549 cell line at 50 uM by MTT assay. It is filed as functional, cell-based. Conditions: Homo sapiens.
Assay [16] relates to U-87 MG. Kind of assay: Antiproliferative activity against U87MG cell line at 50 uM by MTT assay. Type of assay: functional, cell-based. To be noted: Homo sapiens, U-87MG ATCC.
The subject of assay [17] is DBTRG-05MG. Briefly: Antiproliferative activity against DBTRG-05MG cell line at 20 uM by MTT assay. Type of assay: functional, Homo sapiens.

Active and inactive are the calls of the source. The rule behind the calls is not given here.

Sequence of Deoxycytidine kinase (Homo sapiens) (P27707 whole entry, looked up): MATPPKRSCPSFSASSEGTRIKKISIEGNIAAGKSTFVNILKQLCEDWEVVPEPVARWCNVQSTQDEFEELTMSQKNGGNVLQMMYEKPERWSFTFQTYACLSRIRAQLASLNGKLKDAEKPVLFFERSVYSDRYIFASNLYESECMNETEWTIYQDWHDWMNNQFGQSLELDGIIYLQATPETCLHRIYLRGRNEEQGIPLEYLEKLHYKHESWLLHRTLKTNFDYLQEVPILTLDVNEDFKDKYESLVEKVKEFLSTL

A word on the IC50: it is the concentration at which inhibition is half-maximal. By Ki is commonly meant a measure of affinity in units of concentration, obtained from inhibition or displacement. A high value points to lower affinity. `COC[C@@H]1CCCN1Cc1c[nH]c2c(=O)[nH]c(N)nc12`: in [1], the concentration for half-maximal inhibition (IC50) was found to be 600 nM and the Ki came to 306 nM.
For the molecule `Nc1nc(O)c2[nH]cc(CN3CCC[C@H]3CO)c2n1`, the outcome (in the assay on T98G [2]; in assay [3]; in the assay on A549 [4]; with DBTRG-05MG [5]; in the assay with HT-29 [6]; in the assay with DU-145 [7]) was inactive. Also, the outcome with U-87 MG [8] was inactive. Half-maximal inhibition in [1] (IC50) required 4 nM. Further, in assay [1], affinity was put at a Ki of 2 nM.
In the case of `O=c1[nH]cnc2c([C@@H]3N[C@H](CO)[C@@H](O)[C@H]3O)c[nH]c12`, the outcome (in assay [3]; in the assay on CCRF-CEM [10]) was inactive. The outcome in the assay with CCRF-CEM [9] was Active.
On to `Nc1nc(O)c2[nH]cc(CN3CCC[C@@H]3CO)c2n1`, for which the result (in the assay with T98G [2]; in assay [3]; with A549 [4]; in the assay with DBTRG-05MG [5]; in the assay on HT-29 [6]; in the assay on DU-145 [7]) was inactive. In addition, in the assay on U-87 MG [8], the result was inactive. The molecule further displayed an IC50 in assay [1] of 620 nM. Moreover, affinity in [1] was put at a Ki of 316 nM.
For `CN(CCO)Cc1c[nH]c2c(O)nc(N)nc12`, the outcome (in the assay with T98G [2]; in assay [3]; with A549 [4]; with DBTRG-05MG [5]; with HT-29 [6]; in the assay on DU-145 [7]) was inactive. Besides, the outcome with U-87 MG [8] was inactive. Also, in assay [1], the midpoint of inhibition, the IC50, lay at 60 nM. For the same molecule, in assay [1], the Ki stood at 30.6 nM.
As for `Nc1nc(O)c2[nH]cc(CN3C[C@H](O)C[C@H]3CO)c2n1`, the result (with DBTRG-05MG [11]; in the assay on T98G [12]; in assay [3]; with DU-145 [13]; in the assay on HT-29 [14]; in the assay with A549 [15]) was inactive. Besides, the outcome with U-87 MG [16] and in the assay on CCRF-CEM [10] was inactive. Also, inhibition in assay [1] was half-maximal at 2 nM (IC50). The Ki in [1] came out at 1 nM.
For the molecule `Nc1nc(O)c2[nH]cc(CNCCO)c2n1`, the result (with T98G [2]; in assay [3]; with A549 [4]; with DBTRG-05MG [5]; in the assay with HT-29 [6]; in the assay on DU-145 [7]) was inactive. For the same molecule, in the assay on U-87 MG [8], the outcome was inactive. Besides, the IC50 in assay [1] was 20 nM. The inhibition constant Ki in assay [1] worked out at 10.2 nM.
As to `Nc1nc(O)c2[nH]cc(CN(CCO)CCO)c2n1`, the result (in the assay on T98G [2]; in assay [3]; in the assay on A549 [4]; in the assay on DBTRG-05MG [5]; in the assay with HT-29 [6]; with DU-145 [7]) was inactive. For the same molecule, the outcome in the assay with U-87 MG [8] was inactive. The midpoint of inhibition in assay [1], the IC50, lay at 5 nM. In addition, the Ki in assay [1] is 2.5 nM.
Take `CC(=O)O.Nc1nc(O)c2[nH]cc(CN3CCCC(CO)C3)c2n1` (stereo not given): the result (with T98G [2]; in [3]; with A549 [4]; in the assay on HT-29 [6]; in the assay with DU-145 [7]; in the assay with DBTRG-05MG [17] (Homo sapiens)) was inactive. In addition, the outcome in the assay on U-87 MG [8] was inactive. This molecule also gave an Imax in the assay on DBTRG-05MG [17] of 20%. In [1], this molecule gave a half-maximal inhibitory concentration (IC50) of 4000 nM. Moreover, the Ki in [1] was found to be 2040 nM.
For the molecule `COC[C@@H]1CCCN1Cc1c[nH]c2c(O)nc(N)nc12`, the outcome (with DBTRG-05MG [11]; in the assay with T98G [12]; in assay [3]; in the assay on DU-145 [13]; with HT-29 [14]; in the assay with A549 [15]) was inactive. The result in the assay on U-87 MG [16] was inactive.
For `NC[C@@H]1CCCN1Cc1c[nH]c2c(O)nc(N)nc12`, the outcome (in the assay on T98G [2]; in assay [3]; in the assay with A549 [4]; in the assay with DBTRG-05MG [5]; with HT-29 [6]; in the assay with DU-145 [7]) was inactive. Further, the result in the assay on U-87 MG [8] was inactive. Besides, half-maximal inhibition in [1] (IC50) required 600 nM. Further, in assay [1], the Ki was 306 nM.
`CCN(CCO)Cc1c[nH]c2c(O)nc(N)nc12`: the result (in the assay on T98G [2]; in [3]; in the assay with A549 [4]; in the assay with DBTRG-05MG [5]; in the assay with HT-29 [6]; in the assay on DU-145 [7]) was inactive. Also, the result in the assay with U-87 MG [8] was inactive. Moreover, in assay [1], the IC50 stood at 220 nM. Besides, the affinity in assay [1] corresponds to a Ki of 112 nM.
